Experimental data taken from patent publication US11865086B2, “Cinnamaldehyde derivative compounds and methods of use for cinnamaldehyde derivative compounds nicotine cessation” (Pacific University, priority 2018, dated 2024).

Assays:
CYP2A6 [1] = biological target: T1, CYP2A6 (Homo sapiens, UniProt P11509); experiment: Time-dependent inhibition screen, recombinant CYP2A6 system, coumarin hydroxylase readout; conditions: for Fold difference (with respect to CA): kinact/kI relative to t-CA; for time-dependent inhibition of CYP2A6, result in words: with NADPH, 7-hydroxycoumarin formation
T1 sequence (P11509 1-494): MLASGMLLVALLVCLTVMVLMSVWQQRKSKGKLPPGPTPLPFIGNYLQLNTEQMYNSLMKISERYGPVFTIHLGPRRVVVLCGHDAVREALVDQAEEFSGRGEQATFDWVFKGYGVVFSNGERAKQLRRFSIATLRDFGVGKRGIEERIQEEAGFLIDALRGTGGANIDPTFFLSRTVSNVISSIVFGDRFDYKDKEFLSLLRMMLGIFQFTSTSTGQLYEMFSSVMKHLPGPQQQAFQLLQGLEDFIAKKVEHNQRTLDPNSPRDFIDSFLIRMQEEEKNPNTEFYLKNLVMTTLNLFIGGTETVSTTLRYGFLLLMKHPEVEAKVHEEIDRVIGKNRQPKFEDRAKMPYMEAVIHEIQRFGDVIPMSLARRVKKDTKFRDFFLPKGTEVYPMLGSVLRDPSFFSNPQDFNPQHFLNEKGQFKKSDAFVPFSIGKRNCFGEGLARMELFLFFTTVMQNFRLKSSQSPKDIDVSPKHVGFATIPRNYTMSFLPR
From the text: (§1) Since this type of inhibition also requires that the inhibitor is initially metabolized by the target enzyme, MBIs may be identified by evaluating the inhibition in the presence and absence of cofactors that are required for activity, such as NADPH for CYPs.

CYP2A6 [2] = biological target: T1, CYP2A6; experiment: biochemical
From the text: (§2) A 96-well plate assay and fluorescence spectroscopy may be used to quantify the product, 7-hydroxycoumarin.
Data was fit using GraphPad Prism.

CYP2A6 [3] = biological target: T1, CYP2A6; experiment: biochemical; remark: listed apart in the source
From the text: as §1

CYP2A6 [4] = biological target: T1, CYP2A6; experiment: in vitro; conditions: recombinant CYP2A6, probe coumarin
From the text: as §1

CYP2A6 [5] = biological target: T2, CYP2A6 (Homo sapiens, UniProt P11509, K28S/Q25K/Q26K/R27T/W24A); experiment: biochemical
T2 sequence (P11509 with tags, fused parts or gaps limits assumed): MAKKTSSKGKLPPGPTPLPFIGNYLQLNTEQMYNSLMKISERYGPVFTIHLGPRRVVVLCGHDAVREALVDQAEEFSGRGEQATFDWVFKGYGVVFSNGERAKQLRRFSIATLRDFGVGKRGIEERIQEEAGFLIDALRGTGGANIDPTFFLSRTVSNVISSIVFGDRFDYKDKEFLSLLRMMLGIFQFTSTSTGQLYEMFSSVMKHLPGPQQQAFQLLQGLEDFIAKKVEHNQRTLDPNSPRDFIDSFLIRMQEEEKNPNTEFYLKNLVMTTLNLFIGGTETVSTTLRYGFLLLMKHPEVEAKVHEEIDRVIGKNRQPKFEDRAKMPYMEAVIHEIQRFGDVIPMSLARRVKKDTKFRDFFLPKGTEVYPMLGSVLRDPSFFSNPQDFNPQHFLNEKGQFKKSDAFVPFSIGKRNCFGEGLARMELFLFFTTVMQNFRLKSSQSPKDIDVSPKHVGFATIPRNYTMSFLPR
Method: (§3) Spectral binding studies were conducted using purified heterologously expressed CYP2A6 in Escherichia coli. […] Absorbance changes (A386-A418) may be plotted against added ligand concentrations in order to determine dissociation constants.
(§4) In more detail, the CYP2A6 enzyme may be heterologously expressed in Escherichia coli and purified. The expression vector, pKK2A6dH may be used to express the enzyme. The vector contains a cDNA sequence that codes for human CYP2A6 with a deletion of the N-terminal transmembrane sequence, an alteration of several residues at the modified N-terminus to increase expression, and four histidine residues added at the C-terminus to aid in purification. […] Expression from the vector may be induced with the addition of IPTG to bacterial cultures. δ-Aminolevulinic acid is added during expression to supplement heme biosynthesis. The enzyme may be purified following previously reported protocols. Briefly, following cell disruption, the solubilized enzyme may be purified using Ni^2+-affinity chromatography and cation-exchange (CM sepharose) chromatography, which may lead to protein of high purity and P450 content.

[6] = obtained from PubChem and ChemSpider; cited from earlier work
recombinant CYP2A13 = biological target: T3, recombinant CYP2A13 (Homo sapiens, UniProt Q16696); experiment: Time-dependent inhibition, recombinant CYP2A13 system, coumarin hydroxylase readout; assay type: biochemical
T3 sequence (Q16696 1-494): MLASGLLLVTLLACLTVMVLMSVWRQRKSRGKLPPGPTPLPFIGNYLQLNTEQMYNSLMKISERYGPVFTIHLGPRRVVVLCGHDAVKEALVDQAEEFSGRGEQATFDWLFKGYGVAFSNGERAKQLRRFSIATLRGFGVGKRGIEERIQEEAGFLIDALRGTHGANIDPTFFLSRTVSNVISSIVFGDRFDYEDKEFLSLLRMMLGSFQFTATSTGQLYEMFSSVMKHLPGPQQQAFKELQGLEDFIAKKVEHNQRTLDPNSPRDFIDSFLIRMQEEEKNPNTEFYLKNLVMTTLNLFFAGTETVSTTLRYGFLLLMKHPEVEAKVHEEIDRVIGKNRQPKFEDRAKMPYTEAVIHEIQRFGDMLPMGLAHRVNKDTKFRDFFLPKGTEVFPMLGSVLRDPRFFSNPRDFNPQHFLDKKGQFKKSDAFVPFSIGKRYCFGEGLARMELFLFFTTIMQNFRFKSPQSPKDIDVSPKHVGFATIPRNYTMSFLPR
From the text: The above-discussed approach regarding evaluation of selectivity, potency and inhibition parameters of human CYP2A6 by t-CA and structural analogs thereof may be similarly applied to evaluation of the same parameters with regard to CYP2A13.

CYP2A6 [7] = biological target: T1, CYP2A6; experiment: IC50 for inhibition of CYP2A6, coumarin hydroxylase activity (7-hydroxycoumarin fluorescence); conditions: Table 1B, structural analogs of CA
From the text: as §2
Data was fit using GraphPad Prism.

CYP2A6 [8] = biological target: T2, CYP2A6; experiment: Spectral ligand binding (KS) to purified CYP2A6 expressed in Escherichia coli; conditions: read-out: Ks
Method: as §3, §4

SMILES: O=C/C=C/c1c(F)cccc1F [2,6-difluoro-CA, 2,6-difluorocinnamaldehyde]
- Fold difference (with respect to CA) (CYP2A6 [1]): 3.6
- time-dependent inhibition of CYP2A6, result in words (CYP2A6 [1]): more potent inhibitors than t-CA
- IC50 (CYP2A6 [2]): 3.9 µM
- Ki (CYP2A6 [3]): 47.2 µM
- kinact (CYP2A6 [4]): 0.00407 s⁻¹
- kinact/KI (CYP2A6 [4]): 86.2 M⁻¹ s⁻¹
- Kd (CYP2A6 [5]): 7.8 µM
- Log P [6]: 2.3

SMILES: O=C/C=C/c1ccccc1O [2-hydroxy-t-CA]
- time-dependent inhibition of CYP2A6, result in words (CYP2A6 [1]): not to be time-dependent inhibitors

SMILES: Cc1ccccc1C=CC=O [2-methyl-CA]
- time-dependent inhibition of CYP2A6, result in words (CYP2A6 [1]): not to be time-dependent inhibitors

SMILES: O=CC=Cc1ccccc1[N+](=O)[O-] [2-nitro-CA, 2-nitrocinnamaldehyde]
- Fold difference (with respect to CA) (CYP2A6 [1]): 11.2
- time-dependent inhibition of CYP2A6, result in words (CYP2A6 [1]): more potent inhibitors than t-CA
- IC50 (CYP2A6 [2]): 15.1 µM
- Ki (recombinant CYP2A13): 30.9 µM
- kinact (recombinant CYP2A13): 0.00203 s⁻¹
- kinact/KI (recombinant CYP2A13): 67.8 M⁻¹ s⁻¹
- Ki (CYP2A6 [3]): 13.9 µM
- kinact (CYP2A6 [4]): 0.00372 s⁻¹
- kinact/KI (CYP2A6 [4]): 267 M⁻¹ s⁻¹
- Kd (CYP2A6 [5]): 47.5 µM

SMILES: O=CC=Cc1cccc([N+](=O)[O-])c1 [3-nitro-CA, 3-nitrocinnamaldehyde]
- Fold difference (with respect to CA) (CYP2A6 [1]): 0.65
- IC50 (CYP2A6 [2]): 410 µM
- Ki (CYP2A6 [3]): 89.6 µM
- kinact (CYP2A6 [4]): 0.00138 s⁻¹
- kinact/KI (CYP2A6 [4]): 15.5 M⁻¹ s⁻¹

SMILES: O=C/C=C/c1ccc(Br)cc1 [4-bromo-CA]
- IC50 (CYP2A6 [7]): 58.1 µM

SMILES: O=C/C=C/c1ccc(Cl)cc1 [4-chloro-CA]
- Kd (CYP2A6 [8]): 48.9 µM
- IC50 (CYP2A6 [7]): 30.1 µM

SMILES: CCN(CC)c1ccc(/C=C/C=O)cc1 [4-diethylamino-CA]
- IC50 (CYP2A6 [7]): 451 µM

SMILES: CN(C)c1ccc(/C=C/C=O)cc1 [4-dimethylamino-CA]
- IC50 (CYP2A6 [7]): 100 µM

SMILES: O=C/C=C/c1ccc(F)cc1 [4-fluoro-CA]
- IC50 (CYP2A6 [7]): 30.1 µM

SMILES: O=CC=Cc1ccc([N+](=O)[O-])cc1 [4-nitro-CA, 4-nitrocinnamaldehyde]
- Fold difference (with respect to CA) (CYP2A6 [1]): 0.29
- IC50 (CYP2A6 [2]): 308 µM
- Ki (CYP2A6 [3]): 92.1 µM
- kinact (CYP2A6 [4]): 0.00065 s⁻¹
- kinact/KI (CYP2A6 [4]): 7 M⁻¹ s⁻¹

SMILES: C/C(C=O)=C\c1ccc(C(C)(C)C)cc1 [4-t-butyl-α-methyl-CA]
- IC50 (CYP2A6 [7]): 348 µM

SMILES: ON=CC=Cc1ccccc1 [Cinnamaldehyde oxime]
- IC50 (CYP2A6 [2]): 8 µM

SMILES: O=C(O)/C=C/c1ccccc1 [cinnamic acid, reference compound]
- IC50 (CYP2A6 [2]): > 2500 µM

SMILES: OC/C=C/c1ccccc1 [cinnamic alcohol, reference compound]
- IC50 (CYP2A6 [2]): 354 ± 4.4 µM
